Source: patent publication US12600732B2, “Bifunctional compounds for degrading BTK via ubiquitin proteosome pathway” (NURIX THERAPEUTICS, INC., priority 2019, dated 2026)
Read-outs that look alike come from different tables or passages of the source. One block for each compound: values may come before it.

Assays:
[1] = test system: TMD8 C481S cells; assay: Cell viability assay (CellTiter-Glo), TMD8 C481S cells; conditions: for EC50: Homo sapiens, TMD8, 72 h; for EMAX (% viable cells): TMD8 C481S cells, treatment time 72 h
[2] = PK data for BTK CTMs (in vivo plasma concentrations); conditions: for Vd: read-out: Volume of Distribution
Description: The present example evaluates in vivo plasma concentrations of BTK CTMs to develop PK-PD-efficacy relationship and predict human exposure.

[3] = test system: CRBN neo-substrates; assay: CRBN neo-substrate levels / IMiD activity in MOLT4 and TMD8 cells (FIGS. 10-12); type: cell-based; conditions: for effects on CRBN neo-substrate levels: after twenty-four hours, TMD8 and/or MOLT4 cells, FIGS. 10A and 10B; for IMiD activity: FIG. 12
Description: FIGS. 10A and 10B provide effects of compounds 73, 72, 121, and 44, and control compounds, on neo-substrate and ITK or BTK levels after twenty-four hours in MOLT4 cells (FIG. 10A) and TMD8 cells (FIG. 10B).
FIGS. 11A and 11B provide effects of compounds 44, 72, and 149, and control compounds, on CRBN neo-substrate and ITK levels in MOLT4 cells (FIG. 11A) and TMD8 cells (FIG. 11B).
FIG. 12 provides effects of compounds 130, 149, and 44 on ITK levels and IMiD activity.

[4] = target: T1, BTK (Mus musculus, UniProt P35991); assay: In vivo degradation of BTK in mouse PD experiments with oral dosing; conditions: 24 h
T1 construct: from tissue; host or cells: mouse blood B cells / splenocytes (CD-1 or BALB/c)
How it was run: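 CD-1 or BALB/c mice dosed by oral gavage, screens at 90 mg/kg for 6 h, later at lower doses/longer times. Blood or splenocyte BTK measured by intracellular flow cytometry (or HTRF); % degradation from B-cell minus T-cell BTK geometric MFI, relative to vehicle.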

[5] = target: T2, Aiolos (Homo sapiens, UniProt Q96SW2+Q9UKT9); assay: Aiolos degradation in Mantle Cell Lymphoma lines (flow cytometry); type: cell-based; conditions: for DC50: treatment time 24 h
T2 construct: endogenous in cells; host or cells: Mino, Rec-1
Description: Ikaros and Aiolos Degradation in Mantle Cell Lymphoma Lines (Ikaros and Aiolos Flow Cytometry)
This example evaluates the IMiD activity of CTMs in cellular models of Mantle Cell Lymphoma (MCL). […] These assays are to determine potency of CTMs for degrading IMiD neo-substrates in cellular models of MCL and to generate data to inform efficacy studies in MCL xenografts.

[6] = target: BTK (Homo sapiens, UniProt Q06187); assay: BTK degradation (Total BTK HTRF) in Rec-1 cells (Mantle Cell Lymphoma model); type: cell-based; set-up: endogenous in cells; host or cells: TMD8, Mino, Rec-1; conditions: treatment time 4 h
Method: BTK levels were determined using Cisbio Total-BTK HTRF (Homologous Time-Resolved Fluorescence) kit (63ADK064PEG) according to the manufacturer's protocol. Briefly, cells were incubated in 1× supplied lysis buffer for 30 minutes. In an opaque white low volume 96-well plate (Cisbio, 66PL96005), cell lysate was combined with two different specific BTK antibodies, one conjugated with Eu^3+-Cryptate FRET donor and one conjugated with d2 FRET acceptor. Assay controls include wells containing cell lysate with only the Eu^3+-Cryptate FRET donor antibody and wells containing both HTRF antibodies and lysis buffer without cells or control lysate provided by Cisbio. HTRF ratio was calculated as (acceptor signal at 665 nm/donor signal at 620 nm)×10^4. Background HTRF levels were determined from the control well containing the donor, but no acceptor, antibody. Background HTRF levels were subtracted from all samples. Readouts were reported as HTRF levels relative to HTRF levels of DMSO-treated cells. Four-parameter non-linear regressions were performed in GraphPad Prism 7.02 to obtain DC50 values.
This example evaluates the potency of CTMs in a model of Mantle Cell Lymphoma (MCL). To evaluate potential therapeutic indications, BTK CTMs were assayed in models of Mantle Cell Lymphoma as with the TMD8 cells (ABC-DLBCL) above. Tested CTMs had similar potencies for BTK degradation in the MCL cell lines (Mino and Rec-1) and TMD8 cells.

[7] = test system: Aiolos; assay: Non-human primate (cyno) DRF PD, Aiolos remaining in T cells; type: in vivo; conditions: blood, 24 h after previous dose
Method: This example evaluates potency and tolerability of BTK CTMs following multiple, consecutive days of dosing and examines potency of compounds for BTK and Aiolos degradation. The data in the table below is from a study in which animals were dosed daily with the designated oral dose. Analysis for BTK and Aiolos levels was performed twenty-four hours following the previous dose.

[8] = Rat Sprague-Dawley, 10 mg/kg PO
[9] = Rat Sprague-Dawley, 30 mg/kg PO
[10] = oral dose 30 mg/kg, blood, flow cytometry
[11] = oral dose 30 mg/kg, splenocytes, HTRF
[12] = Monkey cynomolgus, 0.75 mg/kg IV

T1 sequence (P35991 whole entry): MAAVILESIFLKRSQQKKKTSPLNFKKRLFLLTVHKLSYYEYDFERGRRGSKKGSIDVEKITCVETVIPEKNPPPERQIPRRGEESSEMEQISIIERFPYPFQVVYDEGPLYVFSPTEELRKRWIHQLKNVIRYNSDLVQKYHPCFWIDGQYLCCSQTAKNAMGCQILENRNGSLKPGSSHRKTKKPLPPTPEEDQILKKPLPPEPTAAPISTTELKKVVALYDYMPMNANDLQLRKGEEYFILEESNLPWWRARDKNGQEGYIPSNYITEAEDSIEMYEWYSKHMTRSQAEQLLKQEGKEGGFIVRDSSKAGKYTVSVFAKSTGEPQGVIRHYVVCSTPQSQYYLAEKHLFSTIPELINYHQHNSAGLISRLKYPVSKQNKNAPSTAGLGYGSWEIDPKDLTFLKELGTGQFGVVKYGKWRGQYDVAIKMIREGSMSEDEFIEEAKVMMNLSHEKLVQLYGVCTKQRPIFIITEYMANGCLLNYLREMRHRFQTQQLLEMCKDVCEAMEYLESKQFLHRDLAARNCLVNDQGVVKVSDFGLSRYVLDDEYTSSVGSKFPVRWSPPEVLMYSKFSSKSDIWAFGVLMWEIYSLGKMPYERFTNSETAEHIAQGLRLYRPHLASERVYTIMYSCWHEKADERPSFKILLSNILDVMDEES
T2 sequence (Q9UKT9 whole entry): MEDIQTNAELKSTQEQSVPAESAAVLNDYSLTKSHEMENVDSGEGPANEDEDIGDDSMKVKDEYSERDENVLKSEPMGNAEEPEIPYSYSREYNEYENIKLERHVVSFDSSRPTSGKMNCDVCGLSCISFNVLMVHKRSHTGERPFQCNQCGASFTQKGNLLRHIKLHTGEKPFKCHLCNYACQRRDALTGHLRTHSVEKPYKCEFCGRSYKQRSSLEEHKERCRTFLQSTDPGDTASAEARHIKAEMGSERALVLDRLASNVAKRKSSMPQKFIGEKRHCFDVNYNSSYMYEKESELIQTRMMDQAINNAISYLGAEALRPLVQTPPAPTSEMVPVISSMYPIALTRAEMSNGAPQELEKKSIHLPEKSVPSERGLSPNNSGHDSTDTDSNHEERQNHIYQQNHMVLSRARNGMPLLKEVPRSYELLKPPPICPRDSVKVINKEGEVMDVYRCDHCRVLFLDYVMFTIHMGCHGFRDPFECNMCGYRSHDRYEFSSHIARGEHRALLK
T2 sequence (Q96SW2 whole entry): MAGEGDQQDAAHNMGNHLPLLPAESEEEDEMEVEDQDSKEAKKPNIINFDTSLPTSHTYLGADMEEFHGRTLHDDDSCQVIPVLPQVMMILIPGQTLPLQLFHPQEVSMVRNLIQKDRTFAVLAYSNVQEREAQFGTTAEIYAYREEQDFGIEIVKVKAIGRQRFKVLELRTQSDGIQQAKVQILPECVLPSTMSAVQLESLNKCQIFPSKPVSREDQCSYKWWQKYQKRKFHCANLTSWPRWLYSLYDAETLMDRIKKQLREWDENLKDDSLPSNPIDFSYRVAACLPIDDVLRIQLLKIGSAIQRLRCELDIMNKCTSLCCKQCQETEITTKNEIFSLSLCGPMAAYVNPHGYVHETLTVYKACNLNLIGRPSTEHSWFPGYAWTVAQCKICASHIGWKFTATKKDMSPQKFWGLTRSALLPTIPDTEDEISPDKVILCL
T2 sequence (Q16531 whole entry partner): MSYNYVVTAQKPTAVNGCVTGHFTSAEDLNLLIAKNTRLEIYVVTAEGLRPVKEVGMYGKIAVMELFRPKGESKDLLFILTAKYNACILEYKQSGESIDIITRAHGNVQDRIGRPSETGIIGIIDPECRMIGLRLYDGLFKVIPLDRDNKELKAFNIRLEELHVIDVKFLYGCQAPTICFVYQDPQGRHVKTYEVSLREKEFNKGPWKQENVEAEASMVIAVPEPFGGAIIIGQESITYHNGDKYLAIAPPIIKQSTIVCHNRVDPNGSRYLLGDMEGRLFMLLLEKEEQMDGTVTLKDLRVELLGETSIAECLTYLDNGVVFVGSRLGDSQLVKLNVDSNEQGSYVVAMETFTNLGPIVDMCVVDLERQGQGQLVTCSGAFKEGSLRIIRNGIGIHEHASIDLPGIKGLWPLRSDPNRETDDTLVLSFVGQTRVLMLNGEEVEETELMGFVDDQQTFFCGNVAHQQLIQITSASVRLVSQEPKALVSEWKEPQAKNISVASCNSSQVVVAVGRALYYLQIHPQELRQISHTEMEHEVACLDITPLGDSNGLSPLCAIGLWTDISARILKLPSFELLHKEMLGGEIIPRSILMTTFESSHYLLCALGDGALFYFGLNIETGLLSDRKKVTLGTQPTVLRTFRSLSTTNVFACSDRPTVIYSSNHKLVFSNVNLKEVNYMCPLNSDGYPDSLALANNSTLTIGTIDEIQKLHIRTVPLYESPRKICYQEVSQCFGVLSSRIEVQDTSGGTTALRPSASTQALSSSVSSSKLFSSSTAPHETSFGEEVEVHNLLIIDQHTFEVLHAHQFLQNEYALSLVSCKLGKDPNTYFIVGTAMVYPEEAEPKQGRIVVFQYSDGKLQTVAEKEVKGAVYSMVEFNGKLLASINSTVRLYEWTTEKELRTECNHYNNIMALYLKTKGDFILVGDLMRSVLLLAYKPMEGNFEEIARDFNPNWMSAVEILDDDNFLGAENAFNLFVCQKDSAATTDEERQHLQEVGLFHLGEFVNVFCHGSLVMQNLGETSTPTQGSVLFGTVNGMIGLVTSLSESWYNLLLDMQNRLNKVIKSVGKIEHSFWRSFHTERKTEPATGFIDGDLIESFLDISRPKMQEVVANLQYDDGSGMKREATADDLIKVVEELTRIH
Sequence of BTK (Homo sapiens, UniProt Q06187) (Q06187 whole entry): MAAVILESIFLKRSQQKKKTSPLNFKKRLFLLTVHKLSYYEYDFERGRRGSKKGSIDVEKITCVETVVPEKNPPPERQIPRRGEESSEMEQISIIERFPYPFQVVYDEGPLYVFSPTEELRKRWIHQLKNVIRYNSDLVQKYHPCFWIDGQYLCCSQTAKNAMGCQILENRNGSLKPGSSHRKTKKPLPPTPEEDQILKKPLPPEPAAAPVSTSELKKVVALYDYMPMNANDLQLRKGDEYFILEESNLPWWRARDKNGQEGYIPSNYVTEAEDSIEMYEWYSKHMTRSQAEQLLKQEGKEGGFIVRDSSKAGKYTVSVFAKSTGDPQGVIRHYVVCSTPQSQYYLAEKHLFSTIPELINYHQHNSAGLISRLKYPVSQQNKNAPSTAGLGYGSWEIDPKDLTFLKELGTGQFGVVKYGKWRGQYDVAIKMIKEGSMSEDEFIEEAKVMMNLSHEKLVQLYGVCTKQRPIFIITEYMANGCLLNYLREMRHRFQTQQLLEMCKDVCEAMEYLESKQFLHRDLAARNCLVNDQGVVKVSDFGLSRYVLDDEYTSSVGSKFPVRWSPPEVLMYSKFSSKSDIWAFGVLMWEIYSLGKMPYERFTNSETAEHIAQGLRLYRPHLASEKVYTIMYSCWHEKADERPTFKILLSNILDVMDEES

AUC ([2]; Mouse Balb/c, 1 mg/kg IV): 2.87 µM·h
clearance ([2]; Mouse Balb/c, 1 mg/kg IV): 6.6 mL/min/kg
Vd ([2]; Mouse Balb/c, 1 mg/kg IV): 0.77 L/kg
AUC ([2]; Mouse Balb/c, 30 mg/kg PO): 2.22 µM·h
bioavailability ([2]; Mouse Balb/c, 30 mg/kg PO): 11%
AUC ([2]; Rat Sprague-Dawley, 1 mg/kg IV): 0.919 µM·h
clearance ([2]; Rat Sprague-Dawley, 1 mg/kg IV): 20 mL/min/kg
Vd ([2]; Rat Sprague-Dawley, 1 mg/kg IV): 3.12 L/kg
AUC [2, 8]: 0.083 µM·h
bioavailability [2, 8]: 1%
AUC [2, 9]: 0.73 µM·h
% BTK Remaining ([4]; oral dose 0.3 mg/kg, blood, flow cytometry): 102%
% BTK Remaining ([4]; oral dose 3 mg/kg, blood, flow cytometry): 68%
% BTK Remaining [4, 10]: 28%
% BTK Remaining [4, 11]: 33%
Structure (SMILES): CN1CCN([C@@H]2CCCN(c3cnc(C(N)=O)c(Nc4ccc(C5CCN(CC6CCN(c7ccc(-c8nn(C9CCC(=O)NC9=O)c(=O)n8C)cc7)CC6)CC5)cc4)n3)C2)C1=O (stereo partly drawn) [Compound 121]
EC50 [1]: 4.94 nM
EMAX (% viable cells) [1]: 31%
effects on CRBN neo-substrate levels [3]: minimal effects

AUC ([2]; Mouse Balb/c, 1 mg/kg IV): 3.96 µM·h
clearance ([2]; Mouse Balb/c, 1 mg/kg IV): 5.1 mL/min/kg
Vd ([2]; Mouse Balb/c, 1 mg/kg IV): 0.68 L/kg
AUC ([2]; Mouse Balb/c, 10 mg/kg PO): 2.9 µM·h
bioavailability ([2]; Mouse Balb/c, 10 mg/kg PO): 7%
% BTK Remaining [4, 11]: 20%
Structure (SMILES): CN1CCN([C@@H]2CCCN(c3cnc(C(N)=O)c(Nc4ccc(C5CCN(CC6CCN(c7ccc8c(=O)n(C9CCC(=O)NC9=O)ccc8c7)CC6)CC5)cc4)n3)C2)C1=O (stereo partly drawn) [Compound 72]
EC50 [1]: 1.16 nM
EMAX (% viable cells) [1]: 21%
IMiD activity [3]: did not have IMiD activity
effects on CRBN neo-substrate levels [3]: does not effect

AUC ([2]; Dog Beagle, 1 mg/kg IV): 0.16 µM·h
clearance ([2]; Dog Beagle, 1 mg/kg IV): 118 mL/min/kg
Vd ([2]; Dog Beagle, 1 mg/kg IV): 56 L/kg
AUC ([2]; Dog Beagle, 10 mg/kg PO): 0.17 µM·h
bioavailability ([2]; Dog Beagle, 10 mg/kg PO): 10%
AUC ([2]; Dog Beagle, 30 mg/kg PO): 0.23 µM·h
AUC [2, 12]: 0.17 µM·h
clearance [2, 12]: 90.9 mL/min/kg
Vd [2, 12]: 16 L/kg
AUC ([2]; Monkey cynomolgus, 10 mg/kg PO): 0.028 µM·h
bioavailability ([2]; Monkey cynomolgus, 10 mg/kg PO): 1%
AUC ([2]; Monkey cynomolgus, 30 mg/kg PO): 0.45 µM·h
AUC ([2]; Mouse Balb/c, 1 mg/kg IV): 3.4 µM·h
clearance ([2]; Mouse Balb/c, 1 mg/kg IV): 6 mL/min/kg
Vd ([2]; Mouse Balb/c, 1 mg/kg IV): 0.72 L/kg
AUC ([2]; Mouse Balb/c, 10 mg/kg PO): 5.81 µM·h
bioavailability ([2]; Mouse Balb/c, 10 mg/kg PO): 17%
AUC ([2]; Mouse Balb/c, 30 mg/kg PO): 2.3 µM·h
AUC ([2]; Mouse CD-1, 1 mg/kg IV): 1.7 µM·h
clearance ([2]; Mouse CD-1, 1 mg/kg IV): 11.6 mL/min/kg
Vd ([2]; Mouse CD-1, 1 mg/kg IV): 1.4 L/kg
AUC ([2]; Mouse CD-1, 10 mg/kg PO): 5.2 µM·h
bioavailability ([2]; Mouse CD-1, 10 mg/kg PO): 33%
AUC ([2]; Rat Sprague-Dawley, 1 mg/kg IV): 0.18 µM·h
clearance ([2]; Rat Sprague-Dawley, 1 mg/kg IV): 99.5 mL/min/kg
Vd ([2]; Rat Sprague-Dawley, 1 mg/kg IV): 32 L/kg
AUC [2, 8]: 0.69 µM·h
bioavailability [2, 8]: 32%
AUC [2, 9]: 1.62 µM·h
bioavailability [2, 9]: 7%
IMiD activity (degradation of IMiD neo-substrates Ikaros and Aiolos) ([5]; Mantle Cell Lymphoma lines Mino and Rec-1): not others
DC50 ([5]; Mino cells): > 2000 nM
DC50 ([5]; Rec-1 cells): > 2000 nM
% BTK Remaining [4, 10]: 5%
DC50 [6]: 2 nM
Structure (SMILES): CN1CCN([C@H]2CCCN(c3cnc(C(N)=O)c(Nc4ccc(C5CCN(CC6CCN(c7ccc(C(=O)NC8CCC(=O)NC8=O)nc7)CC6)CC5)cc4)n3)C2)C1=O (stereo partly drawn) [Compound 130]
EC50 [1]: 4.83 nM
EMAX (% viable cells) [1]: 33%
IMiD activity [3]: did not have IMiD activity
% Aiolos Remaining in T cells ([7]; 10 mg/kg PO daily, 1 day of dosing): 102%
% Aiolos Remaining in T cells ([7]; 10 mg/kg PO daily, 14 days of dosing): 96%
% Aiolos Remaining in T cells ([7]; 30 mg/kg PO daily, 1 day of dosing): 98%
% Aiolos Remaining in T cells ([7]; 30 mg/kg PO daily, 14 days of dosing): 108%
% Aiolos Remaining in T cells ([7]; 100 mg/kg PO daily, 1 day of dosing): 106%
% Aiolos Remaining in T cells ([7]; 100 mg/kg PO daily, 14 days of dosing): 99%
